In brackets after ≈: the same amount, converted by molar mass.
Key:
[1] = test system: P. aeruginosa; type: cell-based; details: against many bacterial species
Method: (§1) The minimum inhibitory concentrations of (MIC) of CEME, CEMA and melittin were determined for a number of different bacteria (Table 2). Briefly, cells were grown overnight at 37° C. in LB-S (Luria broth without any salt supplement) and diluted one in 10,000 in the same medium to give concentrations of about 10^4 to 10^5 CFU/ml. The broth dilutions were set up in a 96 well microtiter plate by putting 200 μl of LB-S containing the initial concentration of antibiotic or compound in column 1 and 100 μl of the same medium in columns 2-12. The compounds were diluted by taking 100 μl of broth from column 1 and mixing it with column 2, resulting in a one in two dilution. This was continued to column 10. Finally, 10 μl of bacteria were pipetted into columns 1-11, and the plates incubated overnight at 37° C. The next day the plates were scored for growth in the wells, and the MIC determined.

[2] = test system: E. coli; type: cell-based; details: strain UB1005, Parent of DC2
Method: as §1

[3] = test system: S. typhimurium; type: cell-based; details: C590 versus C587
Method: as §1

[4] = test system: E. cloacae; type: cell-based; details: strain 218S, Parent of 218R1
Method: as §1

[5] = MICs of common antibiotics in the presence of sub-MIC levels of cationic peptides; type: cell-based; details: peptide at 1/2 MIC levels
Method: as §1
The ability of the cationic peptides to work synergystically was examined by determining the MIC values for some commonly used antibiotics in the presence of sub-MIC levels of cationic peptides (Table 4). […] This may be due to the high membrane permeabilizing activity of CEMA (see below). However, the peptides did lower the MIC of polymyxin B, possibly due to the fact that they are all taken up by the same pathway and are therefore aiding each other's uptake. Of interest is the influence that melittin has on the MIC of polymyxin B, given the […] membrane permeabilizing activity of melittin.

[6] = test system: E. cloacae 218R1; type: cell-based; details: 10 μM NPN; fluorescence increase
Description: (§2) The second assay determined membrane permeability by the ability of 1-N-phenylnaphthylamine (NPN), a small fluorescent probe, to insert itself into the membrane. Normally, very little NPN can penetrate the outer membrane, but in the presence of a membrane permeabilizer it can insert into the hydrophobic membrane resulting in an increase in fluorescence (FIGS. 7 and 8). This N-phenylnaphthylamine uptake assay was previously described by Loh, et al., Antimicrobial Agents and Chemo., 26:546, 1984. Cells were prepared exactly the same as for the lysozyme lysis assay. 1-N-phenylnaphthylamine (NPN) was dissolved in acetone at a concentration of 500 μM. NPN fluorescence was measured in a Perkin-Elmer 650-10S fluorescent spectrophotometer using excitation and emission wavelengths set to 350 nm and 420 nm respectively, with slit widths of 5 nm. The assay was standardized by adding 20 μl of NPN (final concentration of 10 μM) and 10 μl of 0.64 mg/ml of polymyxin B (final concentration of 6.4 μg/ml) into 1 ml of cells, and adjusting the resulting fluorescence to read 90% deflection (90 arbitrary units). Various compounds were tested by adding 10 μl of different concentrations to a cuvette containing 1 ml of cells and 10 μM NPN. Permeabilizing activity was designated as the total fluorescence minus the fluorescence due to NPN alone. Following the fluorescence measurement, the OD600 of the cells was taken to ensure no significant cell lysis had occurred.

[7] = test system: P. AERUGINOSA H309; type: cell-based; details: 10 μM NPN; fluorescence increase
Description: as §2

[8] = test system: E. cloacae 218R1; assay: Lysozyme lysis assay (outer membrane permeabilization); type: cell-based; details: 50 μg/ml lysozyme; decrease in OD600
Method: (§3) Membrane permeabilization by polycationic compounds was measured in two different assays. The first assay measured membrane disruption by the ability of lysozyme to reach the periplasm and cause cell lysis. […] The uptake of lysozyme into whole cells due to membrane permeabilization by various compounds was previously described in Hancock, et al., Antimicrobial Agents and Chemo., 19:777, 1981. Overnight cultures of P. aeruginosa H309 or E. cloacae 218R1 grown in LB-S were diluted 1 in 50 in fresh medium and grown to an OD600 =0.5-0.6. The cells were harvested in a Silencer H-103N clinical centrifuge at 1800 g for 10 min, washed once with one volume of assay buffer (5 mM HEPES pH 7.2, 5 mM KCN), and resuspended in the same buffer to an OD600 of 0.5. Assays consisted of 600 μl of cells with 50 μg/ml of chicken egg white lysozyme and varying concentrations of cationic compounds. Cell lysis was measured as a decrease in the OD600 in a Perkin-Elmer dual beam spectrophotometer. Parallel experiments performed without lysozyme enabled the measurement of the lytic activity of the compounds themselves. To test whether or not permeability to lysozyme could be inhibited by divalent cations, various concentrations of MgCl2 were added to the assay after the addition of lysozyme and before the addition of the test compound.

[9] = test system: P. AERUGINOSA H309; assay: as above; type: cell-based; details: 50 μg/ml lysozyme; decrease in OD600
Method: as §3

[10] = test system: P. aeruginosa H103 LPS; assay: Dansyl polymyxin (DPx) displacement from purified LPS; type: binding; details: on a μM basis
Method: In this assay, DPx was incubated with LPS to saturate the binding sites and then, while polycationic compounds are titrated into the reaction, displacement of the DPx was monitored by the decrease in fluorescence (FIG. 9).
The method of Moore, et al., (Antimicrobial Agents and Chemo., 29:496, 1987), was used to test how much DPx was needed to saturate the binding sties on LPS. Briefly, 5 μl samples of 100 μM DPx were titrated sequentially into 1 ml of 3 μg/ml of LPS until a maximum fluorescence was reached. The fluorescence was measured in a Perkin-Elmer 650-10S fluorescence spectrophotometer with an excitation wavelength of 340 nm and an emission wavelength of 485 nm using slit widths of 5 nm. […] For the binding inhibition assays (Moore, et al., Antimicrobial Agents and Chemo., 29:496, 1987), 2.5 μM DPx was added to 3 μg/ml of H103 LPS in 5 mM HEPES pH 7.2. The test compounds were added 5 μl at a time and the decrease in fluorescence due to displacement of the DPx from the LPS was recorded.

CC[C@H](C)[C@H](NC(=O)CNC(=O)[C@@H](NC(=O)[C@H](CCCCN)NC(=O)[C@H](CCCCN)NC(=O)[C@H](Cc1ccccc1)NC(=O)[C@H](CC(C)C)NC(=O)[C@H](CCCCN)NC(=O)[C@H](Cc1c[nH]c2ccccc12)NC(=O)[C@@H](N)CCCCN)[C@@H](C)CC)C(=O)NCC(=O)N[C@@H](C)C(=O)N[C@H](C(=O)N[C@@H](CC(C)C)C(=O)N[C@@H](CCCCN)C(=O)N[C@H](C(=O)N[C@@H](CC(C)C)C(=O)N[C@H](C(=O)N[C@H](C(=O)NCC(=O)N[C@@H](CC(C)C)C(=O)N1CCC[C@H]1C(=O)N[C@@H](C)C(=O)N[C@@H](CC(C)C)C(=O)N[C@@H](CCCCN)C(=O)N[C@@H](CC(C)C)C(=O)N[C@H](C(=O)N[C@@H](CCCCN)C(=O)O)[C@@H](C)O)[C@@H](C)O)[C@@H](C)O)C(C)C)C(C)C [CEMA]
Antibiotic activity compared with CEME [1]: two-fold improved antibiotic activity | MIC [2]: 2.8 µg/mL (≈ 0.913 µM) | Sensitivity of defensin sensitive strain C590 relative to parent (MIC change) [3]: four-fold more sensitive | MIC [4]: 2.8 µg/mL (≈ 0.913 µM) | Reduction of the MICs of ceftazidime, imipenem and tetracycline [5]: 2 fold | Activity in opening up the membrane to NPN [6]: equally active | Activity in opening up the membrane to NPN [7]: equally active | Permeabilization of the outer membrane to lysozyme, compared with polymyxin B [8]: stronger permeabilizer for lysozyme than polymyxin B | Permeabilization of the outer membrane to lysozyme, compared with polymyxin B [9]: stronger permeabilizer for lysozyme than polymyxin B | Affinity for LPS compared with polymyxin B [10]: higher affinity for LPS than polymyxin B

Source: US5707855A (priority 1996, dated 1998)
